Data reported in PubChem BioAssay AID2060343 (Molecular Pharmacology Branch, DTP, NCI, 2025).

Tested on: 138582-337-R-J1-PDC spheroids with HUVEC/MSC, viability
Experiment: Anticancer human tumor 138582-337-R-J1-PDC patient-derived Merkel cell tumor cell line growth inhibition [IpAb]
Settings: for IC50: curve of first compound; for viability, T/C: stronger effect = lower value; active means viability on the fitted dose curve at most 10% of control; inactive means the rest
Summary of the method: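 Combinations with ipatasertib or abemaciclib were tested on tumour spheroids holding HUVEC (25%) and MSC (15%) alongside 60% malignant cells. Top concentration was at or near clinical Cmax (10 microM if undefined), descending in half-log steps.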

[1] = second compound 0.1 µM, first compound 0.0316 µM
[2] = second compound 0.1 µM, first compound 0.1 µM
[3] = second compound 0.1 µM, first compound 0.316 µM
[4] = second compound 0.1 µM, first compound 1 µM
[5] = second compound 0.1 µM, first compound 3.16 µM
[6] = second compound 0.1 µM, first compound 10 µM
[7] = second compound 0.316 µM, first compound 0.0316 µM
[8] = second compound 0.316 µM, first compound 0.1 µM
[9] = second compound 0.316 µM, first compound 0.316 µM
[10] = second compound 0.316 µM, first compound 1 µM
[11] = second compound 0.316 µM, first compound 3.16 µM
[12] = second compound 0.316 µM, first compound 10 µM
[13] = second compound 1 µM, first compound 0.0316 µM
[14] = second compound 1 µM, first compound 0.1 µM
[15] = second compound 1 µM, first compound 0.316 µM
[16] = second compound 1 µM, first compound 1 µM
[17] = second compound 1 µM, first compound 3.16 µM
[18] = second compound 1 µM, first compound 10 µM
[19] = second compound 3.16 µM, first compound 0.0316 µM
[20] = second compound 3.16 µM, first compound 0.1 µM
[21] = second compound 3.16 µM, first compound 0.316 µM
[22] = second compound 3.16 µM, first compound 1 µM
[23] = second compound 3.16 µM, first compound 3.16 µM
[24] = second compound 3.16 µM, first compound 10 µM
[25] = second compound 10 µM, first compound 0.0316 µM
[26] = second compound 10 µM, first compound 0.1 µM
[27] = second compound 10 µM, first compound 0.316 µM
[28] = second compound 10 µM, first compound 1 µM
[29] = second compound 10 µM, first compound 3.16 µM
[30] = second compound 10 µM, first compound 10 µM
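Further: spheroids exposed to compounds for seven days.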
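Wherever viability, T/C is given: 100% = DMSO vehicle control viability.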

C=CC(=O)N1CCN(c2nc(=O)n(-c3c(C)ccnc3C(C)C)c3nc(-c4c(O)cccc4F)c(F)cc23)C(C)C1 (stereo not given) + CC(C)NCC(C(=O)N1CCN(c2ncnc3c2C(C)CC3O)CC1)c1ccc(Cl)cc1
inactive: viability, T/C [1] 90.2% | viability, T/C [2] 95.5% | viability, T/C [3] 91.4% | viability, T/C [4] 101% | viability, T/C [5] 115% | viability, T/C [6] 168% | viability, T/C [7] 90.6% | viability, T/C [8] 86.2% | viability, T/C [9] 83.5% | viability, T/C [10] 90.1% | viability, T/C [11] 105% | viability, T/C [12] 132% | viability, T/C [13] 71.9% | viability, T/C [14] 66.6% | viability, T/C [15] 71.4% | viability, T/C [16] 74.9% | viability, T/C [17] 86.6% | viability, T/C [18] 77.5% | viability, T/C [19] 57.1% | viability, T/C [20] 56.8% | viability, T/C [21] 59.4% | viability, T/C [22] 63.4% | viability, T/C [23] 69% | viability, T/C [24] 54% | viability, T/C [25] 38.7% | viability, T/C [26] 49.9% | viability, T/C [27] 47.9% | viability, T/C [28] 47.6% | viability, T/C [29] 52.4% | viability, T/C [30] 32.3%
31.6 nM: IC50 (second compound 10 µM)
> 10000 nM: IC50 (second compound 0.1 µM) | IC50 (second compound 0.316 µM) | IC50 (second compound 1 µM) | IC50 (second compound 3.16 µM)

CC(C)(C)c1cnc(CSc2cnc(NC(=O)C3CCNCC3)s2)o1 + CC(C)NCC(C(=O)N1CCN(c2ncnc3c2C(C)CC3O)CC1)c1ccc(Cl)cc1
94.5 nM: IC50 (second compound 0.1 µM)
52.9 nM: IC50 (second compound 1 µM)
< 9.49 nM: IC50 (second compound 10 µM)
inactive: viability, T/C (second compound 0.1 µM, first compound 0.00949 µM) 104% | viability, T/C (second compound 0.1 µM, first compound 0.03 µM) 97.3% | viability, T/C (second compound 0.1 µM, first compound 0.0949 µM) 50.3% | viability, T/C (second compound 0.316 µM, first compound 0.00949 µM) 79% | viability, T/C (second compound 0.316 µM, first compound 0.03 µM) 74.3% | viability, T/C (second compound 0.316 µM, first compound 0.0949 µM) 44.2% | viability, T/C (second compound 1 µM, first compound 0.00949 µM) 72.7% | viability, T/C (second compound 1 µM, first compound 0.03 µM) 72.2% | viability, T/C (second compound 1 µM, first compound 0.0949 µM) 27% | viability, T/C (second compound 3.16 µM, first compound 0.00949 µM) 55.2% | viability, T/C (second compound 3.16 µM, first compound 0.03 µM) 58.7% | viability, T/C (second compound 3.16 µM, first compound 0.0949 µM) 19.5% | viability, T/C (second compound 10 µM, first compound 0.00949 µM) 43.8% | viability, T/C (second compound 10 µM, first compound 0.03 µM) 43.9%
active: viability, T/C (second compound 0.1 µM, first compound 0.3 µM) 0.31% | viability, T/C (second compound 0.1 µM, first compound 0.949 µM) 0.3% | viability, T/C (second compound 0.1 µM, first compound 3 µM) 0.37% | viability, T/C (second compound 0.316 µM, first compound 0.3 µM) 0.31% | viability, T/C (second compound 0.316 µM, first compound 0.949 µM) 0.36% | viability, T/C (second compound 0.316 µM, first compound 3 µM) 0.44% | viability, T/C (second compound 1 µM, first compound 0.3 µM) 0.41% | viability, T/C (second compound 1 µM, first compound 0.949 µM) 0.35% | viability, T/C (second compound 1 µM, first compound 3 µM) 0.37% | viability, T/C (second compound 3.16 µM, first compound 0.3 µM) 0.33% | viability, T/C (second compound 3.16 µM, first compound 0.949 µM) 0.23% | viability, T/C (second compound 3.16 µM, first compound 3 µM) 0.81% | viability, T/C (second compound 10 µM, first compound 0.0949 µM) 5.74% | viability, T/C (second compound 10 µM, first compound 0.3 µM) 0.5% | viability, T/C (second compound 10 µM, first compound 0.949 µM) 0.35% | viability, T/C (second compound 10 µM, first compound 3 µM) 0.49%
76.7 nM: IC50 (second compound 0.316 µM)
37.1 nM: IC50 (second compound 3.16 µM)

Cn1ncc(Cl)c1-c1cc(C(=O)NC(CN)Cc2cccc(F)c2)sc1Cl (stereo not given) + CC(C)NCC(C(=O)N1CCN(c2ncnc3c2C(C)CC3O)CC1)c1ccc(Cl)cc1
3800 nM: IC50 (second compound 0.316 µM)
active: viability, T/C [6] 0.26% | viability, T/C [12] 0.25% | viability, T/C [18] 0.23% | viability, T/C [24] 0.23% | viability, T/C [30] 0.3%
686 nM: IC50 (second compound 10 µM)
3320 nM: IC50 (second compound 1 µM)
3410 nM: IC50 (second compound 3.16 µM)
3040 nM: IC50 (second compound 0.1 µM)
inactive: viability, T/C [1] 89.4% | viability, T/C [2] 83% | viability, T/C [3] 75.9% | viability, T/C [4] 61.4% | viability, T/C [5] 57.4% | viability, T/C [7] 80.7% | viability, T/C [8] 67.3% | viability, T/C [9] 74.2% | viability, T/C [10] 64.8% | viability, T/C [11] 61.5% | viability, T/C [13] 71.7% | viability, T/C [14] 73.1% | viability, T/C [15] 75.7% | viability, T/C [16] 55.7% | viability, T/C [17] 56.8% | viability, T/C [19] 60.5% | viability, T/C [20] 62% | viability, T/C [21] 55.9% | viability, T/C [22] 58% | viability, T/C [23] 53.6% | viability, T/C [25] 53.1% | viability, T/C [26] 45.6% | viability, T/C [27] 51.8% | viability, T/C [28] 50.8% | viability, T/C [29] 44.6%

Cn1nccc1Nc1nccc(-c2ccn(C(CO)c3ccc(Cl)c(F)c3)c(=O)c2)n1 (stereo not given) + CC(C)NCC(C(=O)N1CCN(c2ncnc3c2C(C)CC3O)CC1)c1ccc(Cl)cc1
> 10000 nM: IC50 (second compound 0.1 µM) | IC50 (second compound 0.316 µM)
active: viability, T/C [24] 4.47% | viability, T/C [29] 6.51% | viability, T/C [30] 1.06%
inactive: viability, T/C [1] 104% | viability, T/C [2] 88.8% | viability, T/C [3] 91.8% | viability, T/C [4] 100% | viability, T/C [5] 108% | viability, T/C [6] 124% | viability, T/C [7] 82.8% | viability, T/C [8] 82.8% | viability, T/C [9] 77% | viability, T/C [10] 73.5% | viability, T/C [11] 75.8% | viability, T/C [12] 70% | viability, T/C [13] 68.2% | viability, T/C [14] 70.5% | viability, T/C [15] 67.6% | viability, T/C [16] 51.4% | viability, T/C [17] 44.8% | viability, T/C [18] 17.1% | viability, T/C [19] 47.4% | viability, T/C [20] 55.1% | viability, T/C [21] 48.8% | viability, T/C [22] 38.8% | viability, T/C [23] 19.9% | viability, T/C [25] 45.9% | viability, T/C [26] 47.5% | viability, T/C [27] 34.2% | viability, T/C [28] 22.8%
< 31.6 nM: IC50 (second compound 10 µM)
1700 nM: IC50 (second compound 1 µM)
158 nM: IC50 (second compound 3.16 µM)

Cn1ncnc1[C@H]1c2n[nH]c(=O)c3cc(F)cc(c23)N[C@@H]1c1ccc(F)cc1 + CC(C)NCC(C(=O)N1CCN(c2ncnc3c2C(C)CC3O)CC1)c1ccc(Cl)cc1
inactive: viability, T/C (second compound 0.1 µM, first compound 0.000316 µM) 99.1% | viability, T/C (second compound 0.1 µM, first compound 0.001 µM) 83% | viability, T/C (second compound 0.1 µM, first compound 0.00316 µM) 89.1% | viability, T/C (second compound 0.1 µM, first compound 0.01 µM) 78.3% | viability, T/C [1] 78.6% | viability, T/C [2] 82.9% | viability, T/C (second compound 0.316 µM, first compound 0.000316 µM) 69.7% | viability, T/C (second compound 0.316 µM, first compound 0.001 µM) 81.8% | viability, T/C (second compound 0.316 µM, first compound 0.00316 µM) 64.5% | viability, T/C (second compound 0.316 µM, first compound 0.01 µM) 70.9% | viability, T/C [7] 72% | viability, T/C [8] 74% | viability, T/C (second compound 1 µM, first compound 0.000316 µM) 72.8% | viability, T/C (second compound 1 µM, first compound 0.001 µM) 64.2% | viability, T/C (second compound 1 µM, first compound 0.00316 µM) 68% | viability, T/C (second compound 1 µM, first compound 0.01 µM) 72.7% | viability, T/C [13] 74.2% | viability, T/C [14] 62% | viability, T/C (second compound 3.16 µM, first compound 0.000316 µM) 58.1% | viability, T/C (second compound 3.16 µM, first compound 0.001 µM) 67.6% | viability, T/C (second compound 3.16 µM, first compound 0.00316 µM) 59.2% | viability, T/C (second compound 3.16 µM, first compound 0.01 µM) 55.2% | viability, T/C [19] 51.3% | viability, T/C [20] 54.8% | viability, T/C (second compound 10 µM, first compound 0.000316 µM) 38.2% | viability, T/C (second compound 10 µM, first compound 0.001 µM) 46.7% | viability, T/C (second compound 10 µM, first compound 0.00316 µM) 42.4% | viability, T/C (second compound 10 µM, first compound 0.01 µM) 39.2% | viability, T/C [25] 38.9% | viability, T/C [26] 40.2%
> 100 nM: IC50 (second compound 0.1 µM) | IC50 (second compound 0.316 µM) | IC50 (second compound 1 µM) | IC50 (second compound 3.16 µM)
< 0.316 nM: IC50 (second compound 10 µM)
